Results reported in patent US7166634B2, “Bis-indole pyrroles useful as antimicrobials agents” (Nereus Pharmaceuticals, Inc., priority 2004, dated 2007).
Where “and” joins values, the source holds several entries; their conditions need not be identical. Equal entries are not always repeated.

What was measured:
Experiment in all cases: MIC, broth microdilution (NCCLS M7-A5)
Assay type in all cases: cell-based
[1] = test system: E. faecium - Van^r (VRE 700221); conditions: Table 4, averages of 2 experiments, * single experiment, both values given when differing >2 fold
Procedure: (§1) Minimum inhibitory concentrations (MICs) are determined according to the National Committee for Clinical Laboratory Standards (NCCLS) susceptibility test guideline M7-A5 (Ferraro, M. 2001 Methods for Dilution Antimicrobial Susceptibility Tests for Bacteria that Grow Aerobically; Approved Standard (NCCLS). National Committee for Clinical Laboratory Standards (NCCLS), Villanova) to quantify the antimicrobial activity of the compounds of the present embodiment against various pathogenic bacteria. Susceptibility testing is performed by broth microdilution in accordance with National Committee for Clinical Laboratory Standards (NCCLS) guidelines. This procedure entails combining the test compounds with a standardized number of cells, incubating at the temperature and amount of time appropriate for each particular organism, and visually scoring the concentration at which no growth was apparent in the test wells. The panel includes both drug sensitive and drug resistant isolates of both gram-positive and gram-negative bacteria, including: S. aureus (both MSSA and MRSA), S. pneumoniae (wild type and penicillin-resistant), vancomycin-sensitive E. faecalis, vancomycin-resistant E. faecium, E. coli, H. influenzae and P. aeruginosa.
(§2) Susceptibility testing was performed by broth microdilution in accordance with National Committee for Clinical Laboratory Standards (NCCLS) guidelines. Antimicrobial data for compounds of Formulae II, III, IV, VI, VII, VIII, IX, XII, XIII, XIV, XV′, XV, XVI, XVII, XVIII, XXI′, XXII, XXIII, XXIV, and XXV are shown in Tables 3, 4 and 5.

[2] = test system: S. pneumoniae - penicillin sensitive (49619); conditions: Table 4, averages of 2 experiments, * single experiment, both values given when differing >2 fold
Procedure: as §1, §2

[3] = test system: H. influenzae - ATCC 49766; conditions: Table 4 (MIC); averages of 2 experiments, * single experiment; both values given when differing >2 fold
Procedure: as §1, §2

S. aureus - MSSA (29213) = conditions: Table 4; averages of 2 experiments, * single experiment; both values given when differing >2 fold; in µg/mL
Procedure: as §1, §2

S. aureus - MRSA (43300) = conditions: Table 4; averages of 2 experiments, * single experiment; both values given when differing >2 fold; in µg/mL
Procedure: as §1, §2

[4] = test system: S. pneumoniae - penicillin resistant (51915); conditions: Table 4, averages of 2 experiments, * single experiment, both values given when differing >2 fold
Procedure: as §1, §2

E. coli - imp = conditions: Table 5
Procedure: as §1, §2

[5] = test system: H. influenzae - ATCC 49247; conditions: Table 4 (MIC); averages of 2 experiments, * single experiment; both values given when differing >2 fold
Procedure: as §1, §2

[6] = test system: E. faecalis - Van^s (VSE 29212); set-up: VSE 29212 MIC: unit not given here; conditions: Table 4; averages of 2 experiments, * single experiment; both values given when differing >2 fold
Procedure: as §1, §2

[7] = test system: S. epidermidis - ATCC 700582; set-up: Staph Epi 700582 MIC: unit not given here; conditions: Table 4; averages of 2 experiments, * single experiment; both values given when differing >2 fold
Procedure: as §1, §2

[8] = test system: S. epidermidis - ATCC 700578; set-up: Staph Epi 700578 MIC: unit not given here; conditions: Table 4; averages of 2 experiments, * single experiment; both values given when differing >2 fold
Procedure: as §1, §2

SMILES	VRE 700221 MIC ([1]; in µg/mL)	S. pneumo 49619 Pen. S MIC ([2]; in µg/mL)	H. inf. 49766 [3]	MSSA 29213 MIC (S. aureus - MSSA (29213))	MRSA 43300 MIC (S. aureus - MRSA (43300))	S. pneumo 51915 Pen R MIC ([4]; in µg/mL)	E. coli imp MIC (E. coli - imp)	H. inf. 49247 [5]	VSE 29212 MIC [6]	Staph Epi 700582 MIC [7]	Staph Epi 700578 MIC [8]	S. pneumo 49619 Pen. S MIC [2]	VRE 700221 MIC [1]	S. pneumo 51915 Pen R MIC [4]
COC(=O)c1[nH]c(C(=O)OC)c(-c2c[nH]c3ccc(F)cc23)c1-c1c[nH]c2ccc(F)cc12 [XVIII]	>32*	>32*	>32*	8*	12*	>32*	>32 µg/mL	>32*	>32*	16*	16*	–	–	–
COC(=O)c1[nH]c(C(=O)OC)c(-c2c[nH]c3ccccc23)c1-c1c[nH]c2ccccc12 [IX]	>32	–	>32	>32	>32	>32	>32 µg/mL	>32	>32	16	16	32, >32	–	–
O=C(O)c1[nH]cc(-c2c[nH]c3ccc(Cl)cc23)c1-c1c[nH]c2ccc(Cl)cc12 [VII]	>32*	>32*	>32*	12*	16*	>32*	>32 µg/mL	>32*	>32*	16*	16*	–	–	–
COC(=O)c1[nH]cc(-c2c[nH]c3cc(Cl)c(F)cc23)c1-c1c[nH]c2ccc(F)cc12 [XXIV]	8*	23*	16*	1*	1.5*	16*	8 µg/mL	16*	4*	2*	2*	–	–	–
COC(=O)c1[nH]c(C(=O)OC)c(-c2c[nH]c3cc(F)ccc23)c1-c1c[nH]c2ccccc12 [XXV]	>32*	32*	16*	4*	8*	>32*	>32 µg/mL	8*	>32*	8*	8*	–	–	–
O=C(O)c1[nH]cc(-c2c[nH]c3cc(Cl)c(Cl)cc23)c1-c1c[nH]c2ccc(Cl)cc12 [XII]	8	>32	10	4	6	>32	20 µg/mL	8	8	6	3	–	–	–
COC(=O)c1[nH]c(C(=O)OC)c(-c2c[nH]c3ncccc23)c1-c1c[nH]c2ccc(Cl)cc12 [XIII]	32*	>32*	>32*	3*	4*	>32*	>32 µg/mL	>32*	16*	8*	8*	–	–	–
COC(=O)c1[nH]cc(-c2c[nH]c3cc(F)c(Cl)cc23)c1-c1c[nH]c2ccc(Cl)cc12 [XVII]	4*	16*	16*	1*	1*	24*	8 µg/mL	>32*	4*	1*	1*	–	–	–
COC(=O)c1[nH]c(C(=O)OC)c(-c2c[nH]c3cc(F)c(Cl)cc23)c1-c1c[nH]c2ccc(Cl)cc12 [XXII]	–	32	4	1.25	1.5	32	>32 µg/mL	–	6	2	2.5	–	16 and > 32	–
COC(=O)c1[nH]c(C(=O)OC)c(-c2c[nH]c3ccc(Cl)cc23)c1-c1c[nH]c2ccc(F)cc12 [XX]	>32	32	>32	4	5	–	>32 µg/mL	–	24	8	8	–	–	>32, 32
COC(=O)c1[nH]cc(-c2c[nH]c3cc(Cl)c(Cl)cc23)c1-c1c[nH]c2ncccc12 [XIV]	6	32*	>32*	6	6	24*	–	>32*	12	8*	8*	–	–	–
COC(=O)c1[nH]c(C(=O)OC)c(-c2c[nH]c3ccc(F)cc23)c1-c1c[nH]c2ccccc12 [XXIII]	>32*	>32*	>32*	16*	>32*	>32*	>32 µg/mL	>32*	>32*	16*	>32*	–	–	–
O=C(O)c1[nH]c(C(=O)O)c(-c2c[nH]c3ccc(Cl)cc23)c1-c1c[nH]c2ccc(Cl)cc12 [VIII]	>16	>16	>16	>16	>16	>16	>16 µg/mL	>16	>16	>16	>16	–	–	–
